# Counter-ions that a name gives are not always drawn. Like-named read-outs stand apart in the source and are kept apart here. Bridge positions count the residues as written; N and C are the ends. Peptide text beside a SMILES is read from it.
# T1: KLK5 (Homo sapiens, UniProt Q9Y337)
# T1 construct: purchased R&D Systems 1108-SE
# T1 sequence (Q9Y337 23-293): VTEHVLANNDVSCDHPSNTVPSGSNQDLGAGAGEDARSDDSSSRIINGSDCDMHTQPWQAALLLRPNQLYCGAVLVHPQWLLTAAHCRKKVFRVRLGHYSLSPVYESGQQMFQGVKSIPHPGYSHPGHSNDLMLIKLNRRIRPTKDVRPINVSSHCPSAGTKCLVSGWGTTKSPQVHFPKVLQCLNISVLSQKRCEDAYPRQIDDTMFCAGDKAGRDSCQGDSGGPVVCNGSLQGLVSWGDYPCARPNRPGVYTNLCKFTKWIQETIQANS
# T2: KLK8 (Homo sapiens, UniProt O60259)
# T2 construct: purchased R&D Systems 2025-SE-010
# T2 sequence (O60259 33-260): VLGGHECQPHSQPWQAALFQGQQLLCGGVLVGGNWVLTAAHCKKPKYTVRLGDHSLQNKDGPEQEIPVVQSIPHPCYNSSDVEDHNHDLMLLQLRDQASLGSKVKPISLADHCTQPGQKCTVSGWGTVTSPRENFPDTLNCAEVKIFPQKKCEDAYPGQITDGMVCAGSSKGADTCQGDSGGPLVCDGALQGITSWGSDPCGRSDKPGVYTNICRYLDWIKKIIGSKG
# T3: KLK8 (UniProt O60259 33-260)
# T3 construct: Kallikrein 8 (KLK8); construct and source are in the Supporting Information
# T3 sequence (looked up): T2 sequence (O60259 33-260)
# T4: KLK14 (UniProt Q9P0G3)
# T4 sequence (Q9P0G3 41-267, species assumed, looked up): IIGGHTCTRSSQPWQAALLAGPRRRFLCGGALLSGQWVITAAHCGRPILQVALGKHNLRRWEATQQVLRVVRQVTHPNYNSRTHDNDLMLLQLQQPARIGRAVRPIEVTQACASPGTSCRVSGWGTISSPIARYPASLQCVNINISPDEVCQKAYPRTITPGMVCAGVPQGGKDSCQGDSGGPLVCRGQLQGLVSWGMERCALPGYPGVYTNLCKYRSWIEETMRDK
# T5: KLK14 (Homo sapiens, UniProt Q9P0G3)
# T5 construct: purchased R&D Systems 2664-SE
# T5 sequence (Q9P0G3 25-251): T4 sequence (Q9P0G3 41-267, species assumed, looked up)
# B1: LEKTI-2: LEKTI-2, encoded by SPINK9, selective binding to KLK5 (protein, UniProt Q5DT21 20-86, looked up)
# Serine protease inhibitor …: IECAKQTKQMVDCSHYKKLPPGQQRFCHHMYDPICGSDGKTYKNDCFFCSKVKKTDGTLKFVHFGKC
# Legend:
# KLK5 [1] = biological target: T1, KLK5; assay: Protease activity assay: inhibition of recombinant KLK5 (Boc-VPR-AMC substrate); format: biochemical; conditions: for selectivity for KLK5 against select KLKs in skin: KLK5 versus other skin KLKs; for IC50: n = 3, 10 nM KLK5, Boc-VPR-AMC 100 µM, PBS pH 8.0, read-out: IC50 (n = 3)/nM for KLKs: KLK5
# Procedure: Inhibitory activity against KLK5 was evaluated using the fluorogenic substrate Boc-VPR-AMC for KLK5 (Table ). […] The P1–P1′ reactive site (Arg5 to Ser6) is critical for inhibitor binding, with the P1′ position contributing up to 50% of the total association energy. , The conserved serine at P1′ in Bowman-Birk inhibitors (BBIs) is essential for function. […] Preservation of serine in the P1′ position restored inhibitory activity seen in 5 and 6. Preserving the native serine restored efficacy to the nanomolar range (5: 31 ± 7 nM; 6: 114 ± 11 nM).
# Methods for biological experiment
# SFTI analogues were created by individual amino acid substitutions in PYMOL (Python Molecular Graphics System) using the existing solution NMR structure of native SFTI - 1 (1JBL) found in the RCSB (Research Collaboratory for Structural Bioinformatics) database. Residues of 2 were mutated as follows: L5R, I10H, and F12W with conserved SFTI-1 backbone structure. Other SFTI based analogues were further modified using PYMOL. Currently, there are no SFTI-1 and Kallikrein 5 co-crystal structures found in the RCSB database. Superimposing the existing crystal structure of SFTI-1 and Trypsin complex (4XOJ) with Kallikrein 5 crystal structure (2PSX) was performed with PYMOL. Ab-initio docking between KLK5 and 2 were performed with HADDOCK 2.4 1, 2, with binding active site parameter set to Arg2, Cys3, Thr4, Arg5, Ser6 for 2 and Ser195, His57, and Asp102 for KLK5 catalytic triad. PRODIGY 3-5, set at 25 °C, was used to predict dissociation constant and binding interactions of docked clusters. Structural visualization and alignment were performed with PYMOL 6, and comparative sequence analysis was performed with MEGA11 7.
# A fluorescence spectrometer using SpectraMax® i3x plate reader (Molecular Devices, United States) was used to measure the relative fluorescence unit (RFU) on a 96-well black microplate (Grenier Bio-one, cat no. 655074). The wavelengths were set to 360/460 nm (excitation/emission) for the substrate Boc-VPR-AMC (Bachem AG, cat no. 4003460) and 320/405nm for the substrate Mca-RPKPVE-Nval-WRK(Dnp)-NH2 Fluorogenic MMP Substrate (R&D Systems Biotechne, cat no.ES002). The Boc-VPR-AMC stock solution was prepared by dissolving the solid form in dimethyl sulfoxide to 100 mM. Mca-RPKPVE-Nval-WRK(Dnp)-NH2 fluorogenic MMP Substrate is supplied as stock solution at 10.0 mg/mL in dimethyl sulfoxide. Boc-VPR-AMC was used as a substrate for KLK5, 8 and 14. Mca-RPKPVE-Nval-WRK(Dnp)-NH2 was used as a substrate for KLK7. The ligand-only solution serves as a negative control (minimum RFU, 100% inhibition), and enzyme-only was served as positive (maximum RFU, 0% inhibition). The activities of proteases were measured and readout against the standard curve made in serial dilutions of tested recombinant KLKs, ranging from 0nM to 60nM. Each assay was done in triplicates and repeated at least for three times […]
# Assessment of analogue mediated inhibition of KLK5, KLK7, KLK8, and KLK14 […]
# Recombinant KLK5 (R&D Systems, cat no. 1108-SE) was diluted to a final concentration of 10 nM in 1X PBS (pH 8.0). KLK5 was pre -incubated on ice for 1 hour with serial dilutions of SFTI-derived analogues to assess inhibitory activity. After incubation, 20 µL of each mixture was transferred to we lls of a 96-well microplate in triplicates. The enzymatic reaction was initiated by adding 100 µL of Boc -VPR-AMC substrate (final concentration 100 µM) to each well. Fluorescence (RFU) was measured using a SpectraMax® i3x plate reader with chamber temperature maintained at 37°C. Readings were started at 0 minutes (baseline) and another […]
# Recombinant KLK7 (R&D Systems , cat no. 2624-SE) and KLK14 (R&D Systems, cat no. 2664-SE) were activated by adding 1 mM CaCl ₂ 0.05% v/v Brij-35 (Sigma, cat no. […]
# incubated at 37°C for 1 hour. Reactions were stopped by adding EDTA to a final concentration of 50 mM (Sigma, cat no. EDS-100G) KLK8 (catalytic domain only; R&D Systems, cat no. 2025-SE-010) was activated separately with 11 nM lysyl […]
# KLK7 [2] = biological target: T6, KLK7 (Homo sapiens, UniProt P49862); assay: Protease activity assay: inhibition of recombinant KLK7 (Mca-RPKPVE-Nval-WRK(Dnp)-NH2 substrate); format: biochemical; design: purchased R&D Systems 2624-SE; conditions: n = 3; 100 nM KLK7, 37°C, 20 hours; read-out: IC50 (n = 3)/nM for KLKs: KLK7
# Source text: using the following equation: […]
# (1 picture or pasted object on this page, not shown here)
# KLK5 [3] = biological target: T1, KLK5; design: method as in Chen et al. (2016); conditions: earlier work of the authors; ref Chen et al. (2016); read-out: IC50 (n = 3)/nM for KLKs: KLK5; cited from earlier work
# KLK8 [4] = biological target: T2, KLK8; design: method as in Chen et al. (2016); conditions: ref Chen et al. (2016); read-out: IC50 (n = 3)/nM for KLKs: KLK8; cited from earlier work
# KLK8 [5] = biological target: T3, KLK8; assay: enzyme inhibition assay (fluorogenic substrate); selectivity: inhibition of KLK7, KLK8 or KLK14 activity by the peptide, n = 3; substrates and conditions in the Supporting Information
# [6] = biological target: Kallikrein-related peptidase 5 (KLK5) (UniProt Q9Y337); assay: enzyme inhibition assay (fluorogenic substrate); inhibition of KLK5 activity by the peptide, fluorogenic substrate Boc-VPR-AMC, n = 3; conditions in the Supporting Information
# KLK14 [7] = biological target: T4, KLK14; assay: enzyme inhibition assay (fluorogenic substrate); selectivity: inhibition of KLK7, KLK8 or KLK14 activity by the peptide, n = 3; substrates and conditions in the Supporting Information
# plasmin [8] = biological target: plasmin; design: method as in PMID 7543841; conditions: read-out: Ki against trypsin-like plasmin; cited from earlier work
# plasma kallikrein = system: plasma kallikrein; design: method as in PMID 143965; conditions: cited from earlier work
# thrombin = system: thrombin; design: method as in PMID 143965; conditions: cited from earlier work
# trypsin = system: trypsin; design: method as in PMID 143965; conditions: cited from earlier work
# plasmin [9] = system: plasmin; design: method as in PMID 143965; conditions: cited from earlier work
# aprotinin (Bos taurus) = aprotinin (Bos taurus) (UniProt P00974); conditions: cited from earlier work
# LEKTI-2 (Homo sapiens) = LEKTI-2 (Homo sapiens) (UniProt Q5DT21); conditions: cited from earlier work
# KLK14 [10] = biological target: T5, KLK14; conditions: prior findings, reference not given; cited from earlier work
# KLK7 [11] = biological target: T6, KLK7; design: purchased R&D Systems 2624-SE; conditions: prior findings, reference not given; cited from earlier work
# Target sequence in this assay (P49862 30-253): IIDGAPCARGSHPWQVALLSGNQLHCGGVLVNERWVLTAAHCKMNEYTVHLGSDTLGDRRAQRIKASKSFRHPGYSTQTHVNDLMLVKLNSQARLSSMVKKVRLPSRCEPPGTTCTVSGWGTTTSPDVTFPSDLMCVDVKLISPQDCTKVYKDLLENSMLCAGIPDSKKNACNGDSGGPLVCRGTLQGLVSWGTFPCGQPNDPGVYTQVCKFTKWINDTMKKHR
molecule,measurement,setting,value
C[C@@H](O)[C@@H]1NC(=O)[C@@H]2CSSC[C@H](NC(=O)[C@H](CCC(=O)O)NC(=O)[C@@H]3CCCN3C(=O)[C@@H]3CCCN3C(=O)[C@H](CO)NC(=O)[C@H](CO)NC(=O)[C@H](CCCNC(=N)N)NC1=O)C(=O)N[C@@H](Cc1c[nH]c3ccccc13)C(=O)N1CCC[C@H]1C(=O)N[C@@H](CC(N)=O)C(=O)NCC(=O)N[C@@H](CO)C(=O)N2 [compound 9] (cyclo(GSCTRSSPPECWPN); disulfide 3-11),selectivity for KLK5 against select KLKs in skin,KLK5 [1],4 fold
same,IC50,KLK5 [1],54 ± 6 nM
same,IC50,KLK7 [2],165 ± 12 nM
Sunflower trypsin inhibitor-1 [compound 1],IC50,KLK5 [3],230 ± 3 nM
same,IC50,KLK8 [4],1290 ± 51 nM
Sunflower trypsin inhibitor-1 (SFTI-1) 1 (peptide),IC50,KLK8 [5],1290 nM
same,IC50,[6],230 nM
same,IC50,KLK14 [7],30 nM
Aprotinin,Ki,plasmin [8],0.07 nM
CCOC(=O)c1ccc(OC(=O)CCCCCN=C(N)N)cc1 [Gabexate mesylate],IC50,plasma kallikrein,41000 nM
same,IC50,thrombin,110000 nM
same,IC50,trypsin,9400 nM
same,IC50,plasmin [9],30000 nM
C[C@@H](O)[C@@H]1NC(=O)[C@@H]2CSSC[C@H](NC(=O)[C@H](CCC(=O)O)NC(=O)[C@@H]3CCCN3C(=O)[C@@H]3CCCN3C(=O)[C@H](CO)NC(=O)[C@H](CO)NC(=O)[C@H](CCCNC(=N)N)NC1=O)C(=O)N[C@@H](Cc1c[nH]c3ccccc13)C(=O)N1CCC[C@H]1C(=O)N[C@@H](CC(N)=O)C(=O)NCC(=O)N[C@@H](Cc1ccc(O)cc1)C(=O)N2 [compound 10] (cyclo(GYCTRSSPPECWPN); disulfide 3-11),selectivity for KLK5 against select KLKs in skin,KLK5 [1],4 fold
same,IC50,KLK5 [1],56 ± 7 nM
same,IC50,KLK7 [2],240 ± 14 nM
plasmin (from UniProt P00747),Ki,aprotinin (Bos taurus),0.07 nM
KLK5 (from UniProt Q9Y337),Ki,LEKTI-2 (Homo sapiens),65 nM
B1,inhibition of KLK14,KLK14 [10],without potently inhibiting
same,inhibition of KLK7,KLK7 [11],without potently inhibiting

# Reference: article PMC12670400, “LEKTI-Grafted Sunflower Trypsin Inhibitor: A Potential Therapeutic for Skin Diseases” (Journal of Medicinal Chemistry, 2025)
